Assays:
[1] = xn = mol fraction of the nth substance listed; conditions: 97.1 kPa, Liquid, Vibrating tube method
[2] = relative permittivity at various frequencies (dimensionless); xn = mol fraction of the nth substance listed; conditions: 97.1 kPa, Liquid, Frequency=1 MHz, Parallel plate capacitor

COCCOC [1,2-dimethoxyethane] + CCCCCCCC
Conditions | mass density, [1] [kg/m3] | relative permittivity, [2]
288.15 K, x2 = 0 | 872.06 | 7.41
288.15 K, x2 = 0.0493 | 857.73 | –
288.15 K, x2 = 0.0502 | – | 6.79
288.15 K, x2 = 0.1011 | 843.79 | –
288.15 K, x2 = 0.1035 | – | 6.21
288.15 K, x2 = 0.2005 | – | 5.31
288.15 K, x2 = 0.2032 | 819.39 | –
288.15 K, x2 = 0.3015 | – | 4.54
288.15 K, x2 = 0.3036 | 798.48 | –
288.15 K, x2 = 0.4019 | 780.49 | –
288.15 K, x2 = 0.4024 | – | 3.92
288.15 K, x2 = 0.4964 | – | 3.45
288.15 K, x2 = 0.4992 | 764.69 | –
288.15 K, x2 = 0.6022 | – | 3.01
288.15 K, x2 = 0.6046 | 749.52 | –
288.15 K, x2 = 0.7031 | – | 2.67
288.15 K, x2 = 0.707 | 736.47 | –
288.15 K, x2 = 0.8035 | – | 2.38
288.15 K, x2 = 0.8044 | 725.4 | –
288.15 K, x2 = 0.9038 | – | 2.15
288.15 K, x2 = 0.9082 | 714.88 | –
288.15 K, x2 = 0.9495 | 711.04 | –
288.15 K, x2 = 0.9511 | – | 2.06
298.15 K, x2 = 0 | 861.17 | 7.07
298.15 K, x2 = 0.0487 | – | 6.5
298.15 K, x2 = 0.0493 | 847.03 | –
298.15 K, x2 = 0.1004 | – | 5.97
298.15 K, x2 = 0.1011 | 833.26 | –
298.15 K, x2 = 0.2032 | 809.21 | –
298.15 K, x2 = 0.204 | – | 5.07
298.15 K, x2 = 0.3008 | – | 4.39
298.15 K, x2 = 0.3036 | 788.62 | –
298.15 K, x2 = 0.4019 | 770.94 | –
298.15 K, x2 = 0.4064 | – | 3.78
298.15 K, x2 = 0.4992 | 755.41 | –
298.15 K, x2 = 0.5043 | – | 3.32
298.15 K, x2 = 0.6046 | 740.56 | 2.93
298.15 K, x2 = 0.7038 | – | 2.62
298.15 K, x2 = 0.707 | 727.79 | –
298.15 K, x2 = 0.8039 | – | 2.35
298.15 K, x2 = 0.8044 | 716.95 | –
298.15 K, x2 = 0.9008 | – | 2.14
298.15 K, x2 = 0.9082 | 706.67 | –
298.15 K, x2 = 0.9495 | 702.91 | –
298.15 K, x2 = 0.9516 | – | 2.04
308.15 K, x2 = 0 | 850.13 | 6.75
308.15 K, x2 = 0.0493 | 836.17 | –
308.15 K, x2 = 0.0513 | – | 6.2
308.15 K, x2 = 0.1011 | 822.58 | –
308.15 K, x2 = 0.1017 | – | 5.71
308.15 K, x2 = 0.203 | – | 4.88
308.15 K, x2 = 0.2032 | 798.9 | –
308.15 K, x2 = 0.3025 | – | 4.23
308.15 K, x2 = 0.3036 | 778.63 | –
308.15 K, x2 = 0.4019 | 761.25 | –
308.15 K, x2 = 0.4021 | – | 3.69
308.15 K, x2 = 0.4992 | 746.01 | –
308.15 K, x2 = 0.5006 | – | 3.25
308.15 K, x2 = 0.6029 | – | 2.87
308.15 K, x2 = 0.6046 | 731.48 | –
308.15 K, x2 = 0.7028 | – | 2.57
308.15 K, x2 = 0.707 | 718.98 | –
308.15 K, x2 = 0.802 | – | 2.32
308.15 K, x2 = 0.8044 | 708.4 | –
308.15 K, x2 = 0.9027 | – | 2.11
308.15 K, x2 = 0.9082 | 698.35 | –
308.15 K, x2 = 0.9493 | – | 2.03
308.15 K, x2 = 0.9495 | 694.71 | –

From the NIST ThermoML archive (doi:10.1016/j.jct.2015.05.006)
